Source: PubChem BioAssay (NCI)
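Five concentrations, 48 hours, 96-well plates. Here, GI50 denotes the concentration required for 50% inhibition of growth. TGI marks complete inhibition of growth.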

Experiments:
Experiment in all cases: NCI anticancer screen, dose series, 48 h; in the data active = GI50 below about 0.43 µM; inactive = the rest
[1] = system: SR leukemia
[2] = system: SF-268 CNS
[3] = system: TK-10 renal
[4] = system: CCRF-CEM leukemia
[5] = system: SK-MEL-5 melanoma
[6] = system: UACC-257 melanoma
[7] = system: NCI-H226 lung
[8] = system: MDA-MB-435
[9] = system: HS 578T breast
[10] = system: SN12C renal
[11] = system: HOP-62 NSCLC
[12] = system: HCT-15 colon
[13] = system: RXF 393 renal
[14] = system: SK-MEL-2 melanoma
[15] = system: HCT-116 colon
[16] = system: CAKI-1 renal
[17] = system: M14 melanoma
[18] = system: UO-31 renal
[19] = system: RPMI-8226 leukemia
[20] = system: ACHN renal
[21] = system: IGROV1 ovarian
[22] = system: A549 NSCLC
[23] = system: 786-0 renal
[24] = system: LOX IMVI melanoma
[25] = system: T-47D breast
[26] = system: MOLT-4 leukemia
[27] = system: COLO 205 colon
[28] = system: EKVX NSCLC
[29] = system: MDA-MB-231 breast
[30] = system: K-562 leukemia
[31] = system: OVCAR-3 ovarian
[32] = system: SK-MEL-28 melanoma
[33] = system: HL-60(TB) leukemia
[34] = system: OVCAR-8 ovarian
[35] = system: UACC-62 melanoma
[36] = system: U251 CNS
[37] = system: SF-539 CNS
[38] = system: A498 renal
[39] = system: SW-620 colon
[40] = system: NCI-H522 lung
[41] = system: SK-OV-3 ovarian
[42] = system: SNB-75 CNS
[43] = system: OVCAR-4 ovarian
[44] = system: SNB-19 CNS
[45] = system: KM12 colon
[46] = system: DU-145 prostate
[47] = system: HT29 colon
[48] = system: BT-549 breast
[49] = system: SF-295 CNS
[50] = system: PC-3 prostate
[51] = system: OVCAR-5 ovarian
[52] = system: NCI/ADR-RES ovarian
[53] = system: HOP-92 NSCLC
[54] = system: NCI-H460 lung
[55] = system: MCF7 breast
[56] = system: HCC-2998 colon

Cc1nc2ccccn2c1NC(=O)NNC(=S)Nc1ccc(Cl)cc1
> 100 µM: TGI [1] | TGI [2] | TGI [3] | TGI [4] | TGI [5] | TGI [6] | TGI [7] | TGI [8] | TGI [9] | TGI [10] | TGI [11] | TGI [12] | TGI [13] | TGI [14] | TGI [15] | TGI [16] | TGI [17] | TGI [18] | TGI [19] | TGI [20] | TGI [21] | TGI [22] | TGI [23] | TGI [24] | TGI [25] | TGI [26] | TGI [27] | TGI [28] | TGI [29] | TGI [30] | TGI [31] | TGI [32] | TGI [33] | TGI [34] | TGI [35] | TGI [36] | TGI [37] | TGI [38] | TGI [39] | TGI [40] | TGI [41] | TGI [42] | TGI [43] | TGI [44] | TGI [45] | TGI [46] | TGI [47] | TGI [48] | TGI [49] | TGI [50] | TGI [51] | TGI [52] | TGI [53] | TGI [54] | TGI [55] | TGI [56]
inactive: GI50 [1] 95.7 µM | GI50 [2] > 100 µM | GI50 [3] > 100 µM | GI50 [4] > 100 µM | GI50 [5] > 100 µM | GI50 [6] > 100 µM | GI50 [7] > 100 µM | GI50 [8] > 100 µM | GI50 [9] > 100 µM | GI50 [10] > 100 µM | GI50 [11] > 100 µM | GI50 [12] > 100 µM | GI50 [13] > 100 µM | GI50 [14] > 100 µM | GI50 [15] > 100 µM | GI50 [16] > 100 µM | GI50 [17] > 100 µM | GI50 [18] > 100 µM | GI50 [19] > 100 µM | GI50 [20] > 100 µM | GI50 [21] > 100 µM | GI50 [22] > 100 µM | GI50 [23] > 100 µM | GI50 [24] > 100 µM | GI50 [25] > 100 µM | GI50 [26] > 100 µM | GI50 [27] > 100 µM | GI50 [28] > 100 µM | GI50 [29] 67.8 µM | GI50 [30] > 100 µM | GI50 [31] > 100 µM | GI50 [32] > 100 µM | GI50 [33] > 100 µM | GI50 [34] > 100 µM | GI50 [35] > 100 µM | GI50 [36] > 100 µM | GI50 [37] > 100 µM | GI50 [38] > 100 µM | GI50 [39] > 100 µM | GI50 [40] > 100 µM | GI50 [41] > 100 µM | GI50 [42] > 100 µM | GI50 [43] > 100 µM | GI50 [44] > 100 µM | GI50 [45] > 100 µM | GI50 [46] > 100 µM | GI50 [47] > 100 µM | GI50 [48] > 100 µM | GI50 [49] > 100 µM | GI50 [50] > 100 µM | GI50 [51] > 100 µM | GI50 [52] > 100 µM | GI50 [53] > 100 µM | GI50 [54] > 100 µM | GI50 [55] > 100 µM | GI50 [56] > 100 µM
